From US20220281848A1, “PYRAZOLE-SUBSTITUTED PYRROLIDINONES AS HERBICIDES” (FMC Corporation, priority 2019, published 2022)

Tested on: plants
Test: Test D pre-emergence, other plants of Tables D1 and D3
Format: in vivo
Conditions: for ABUTH damage to plant (100=total damage; 0=no damage) / AMARE damage to plant (100=total damage; 0=no damage) / DIGSA damage to plant (100=total damage; 0=no damage) / ECHCG damage to plant (100=total damage; 0=no damage) / ORYSA damage to plant (100=total damage; 0=no damage) / PANMI damage to plant (100=total damage; 0=no damage) / SETFA damage to plant (100=total damage; 0=no damage): preemergent
Outline: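 Damage was rated visually from 0 (none) to 100 (total), at 20 DAA for pre-emergence and 15 d for post-emergence. Plants grew from safener-treated seed in a glasshouse at 24/18° C. or 20/16° C. day/night, 65% humidity, watered twice daily.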

[1] = pre-emergence, rate 15, 20 DAA, 100=total damage, 0=no damage
[2] = pre-emergence, rate 30, 20 DAA, 100=total damage, 0=no damage
[3] = pre-emergence, rate 60, 20 DAA, 100=total damage, 0=no damage
[4] = pre-emergence, rate 130, 20 DAA, 100=total damage, 0=no damage
[5] = pre-emergence, rate 250, 20 DAA, 100=total damage, 0=no damage
[6] = pre-emergence, rate 500, 20 DAA, 100=total damage, 0=no damage

SMILES: CN1CC(c2cc(C(F)(F)F)n(C)n2)C(C(=O)Nc2ccc(F)cc2C(C)(F)F)C1=O (racemic) [Compound 26]
- VERPE damage rating (VERPE, Rates 500, pre-emergence, 20 DAA, 100=total damage, 0=no damage): 80
- damage to plant, ALOMY [1]: 0
- damage to plant, AVEFA [1]: 0
- damage to plant, BEAVA [1]: 0
- damage to plant, BROTE [1]: 0
- damage to plant, BRSNN [1]: 0
- damage to plant, HORVW [1]: 0
- damage to plant, SINAR [1]: 0
- damage to plant, ALOMY [2]: 0
- damage to plant, AVEFA [2]: 0
- damage to plant, BEAVA [2]: 0
- damage to plant, BROTE [2]: 0
- damage to plant, BRSNN [2]: 0
- damage to plant, HORVW [2]: 0
- damage to plant, SINAR [2]: 0
- damage to plant, ALOMY [3]: 0
- damage to plant, AVEFA [3]: 0
- damage to plant, BEAVA [3]: 0
- damage to plant, BROTE [3]: 0
- damage to plant, BRSNN [3]: 0
- damage to plant, HORVW [3]: 0
- damage to plant, SINAR [3]: 0
- damage to plant, ALOMY [4]: 10
- damage to plant, AVEFA [4]: 10
- damage to plant, BEAVA [4]: 0
- damage to plant, BROTE [4]: 0
- damage to plant, BRSNN [4]: 0
- damage to plant, HORVW [4]: 10
- damage to plant, SINAR [4]: 0
- damage to plant, ALOMY [5]: 70
- damage to plant, AVEFA [5]: 50
- damage to plant, BEAVA [5]: 0
- damage to plant, BRSNN [5]: 0
- damage to plant, HORVW [5]: 40
- damage to plant, SINAR [5]: 0
- damage to plant, ALOMY [6]: 70
- damage to plant, AVEFA [6]: 90
- damage to plant, BEAVA [6]: 0
- damage to plant, BROTE [6]: 10
- damage to plant, BRSNN [6]: 10
- damage to plant, HORVW [6]: 30
- damage to plant, SINAR [6]: 0
- ABUTH damage to plant (100=total damage; 0=no damage) (Rates 15, 20 DAA): 0
- AMARE damage to plant (100=total damage; 0=no damage) (Rates 15, 20 DAA): 0
- DIGSA damage to plant (100=total damage; 0=no damage) (Rates 15, 20 DAA): 20
- ECHCG damage to plant (100=total damage; 0=no damage) (Rates 15, 20 DAA): 0
- ORYSA damage to plant (100=total damage; 0=no damage) (Rates 15, 20 DAA): 0
- PANMI damage to plant (100=total damage; 0=no damage) (Rates 15, 20 DAA): 0
- SETFA damage to plant (100=total damage; 0=no damage) (Rates 15, 20 DAA): 0
- ABUTH damage to plant (100=total damage; 0=no damage) (Rates 30, 20 DAA): 0
- AMARE damage to plant (100=total damage; 0=no damage) (Rates 30, 20 DAA): 0
- DIGSA damage to plant (100=total damage; 0=no damage) (Rates 30, 20 DAA): 90
- ECHCG damage to plant (100=total damage; 0=no damage) (Rates 30, 20 DAA): 10
- ORYSA damage to plant (100=total damage; 0=no damage) (Rates 30, 20 DAA): 0
- PANMI damage to plant (100=total damage; 0=no damage) (Rates 30, 20 DAA): 0
- SETFA damage to plant (100=total damage; 0=no damage) (Rates 30, 20 DAA): 20
- ABUTH damage to plant (100=total damage; 0=no damage) (Rates 60, 20 DAA): 0
- AMARE damage to plant (100=total damage; 0=no damage) (Rates 60, 20 DAA): 0
- DIGSA damage to plant (100=total damage; 0=no damage) (Rates 60, 20 DAA): 90
- ECHCG damage to plant (100=total damage; 0=no damage) (Rates 60, 20 DAA): 30
- ORYSA damage to plant (100=total damage; 0=no damage) (Rates 60, 20 DAA): 0
- PANMI damage to plant (100=total damage; 0=no damage) (Rates 60, 20 DAA): 0
- SETFA damage to plant (100=total damage; 0=no damage) (Rates 60, 20 DAA): 70
- ABUTH damage to plant (100=total damage; 0=no damage) (Rates 130, 20 DAA): 0
- AMARE damage to plant (100=total damage; 0=no damage) (Rates 130, 20 DAA): 0
- DIGSA damage to plant (100=total damage; 0=no damage) (Rates 130, 20 DAA): 90
- ECHCG damage to plant (100=total damage; 0=no damage) (Rates 130, 20 DAA): 20
- ORYSA damage to plant (100=total damage; 0=no damage) (Rates 130, 20 DAA): 0
- PANMI damage to plant (100=total damage; 0=no damage) (Rates 130, 20 DAA): 0
- SETFA damage to plant (100=total damage; 0=no damage) (Rates 130, 20 DAA): 90
- ABUTH damage to plant (100=total damage; 0=no damage) (Rates 250, 20 DAA): 0
- AMARE damage to plant (100=total damage; 0=no damage) (Rates 250, 20 DAA): 70
- DIGSA damage to plant (100=total damage; 0=no damage) (Rates 250, 20 DAA): 90
- ECHCG damage to plant (100=total damage; 0=no damage) (Rates 250, 20 DAA): 60
- ORYSA damage to plant (100=total damage; 0=no damage) (Rates 250, 20 DAA): 0
- PANMI damage to plant (100=total damage; 0=no damage) (Rates 250, 20 DAA): 0
- SETFA damage to plant (100=total damage; 0=no damage) (Rates 250, 20 DAA): 90
- ABUTH damage to plant (100=total damage; 0=no damage) (Rates 500, 20 DAA): 0
- AMARE damage to plant (100=total damage; 0=no damage) (Rates 500, 20 DAA): 60
- DIGSA damage to plant (100=total damage; 0=no damage) (Rates 500, 20 DAA): 90
- ECHCG damage to plant (100=total damage; 0=no damage) (Rates 500, 20 DAA): 90
- ORYSA damage to plant (100=total damage; 0=no damage) (Rates 500, 20 DAA): 0
- PANMI damage to plant (100=total damage; 0=no damage) (Rates 500, 20 DAA): 0
- SETFA damage to plant (100=total damage; 0=no damage) (Rates 500, 20 DAA): 90
